Test results: the RepoRT retention time repository (doi:10.1016/j.foodchem.2021.129757)

Legend:
Settings in all cases: stereoisomer not certain
[1] = RP, Waters ACQUITY UPLC BEH C18, 100 × 2.1 mm, 1.7 µm, 65 °C, 0.4 mL/min, estimated dead time 0.55 min; A: water + 0.1% formic acid, pH 3; B: 80% acetonitrile + 20% acetone + 0.1% formic acid, pH 3; gradient (min/%B) 0/0 5/100 5.5/0 6/0
[2] = RP, Agilent ZORBAX RRHD Eclipse Plus C18, 50 × 2.1 mm, 1.8 µm, 30 °C, 0.4 mL/min, estimated dead time 0.28 min; A: water + 0.1% formic acid, pH 3; B: acetonitrile + 0.1% formic acid, pH 3; gradient (min/%B) 0/1 5/10 8/25 9.1/99 10/99 12/99
[3] = RP, Merck LiChrospher RP-18, 250 × 4 mm, 5 µm, 35 °C, 0.3 mL/min, estimated dead time 6.7 min; A: water + 0.5% formic acid; B: acetonitrile + 0.5% formic acid; gradient (min/%B) 0/5 10/5 30/15 45/20 65/20 95/54 110/63 115/5 135/5
[4] = RP, Phenomenex Luna Omega Polar C18, 100 × 2.1 mm, 1.6 µm, 40 °C, 0.5 mL/min, estimated dead time 0.44 min; A: water + 0.5% formic acid; B: acetonitrile + 0.5% formic acid; gradient (min/%B) 0/5 3/50 3.1/100 5/100 5.1/5 7/5
[5] = RP, Waters Atlantis T3, 100 × 2.1 mm, 3 µm, 40 °C, 0.3 mL/min, estimated dead time 0.73 min; A: water + 0.1% trifluoroacetic acid, pH 2; B: acetonitrile + 0.1% trifluoroacetic acid, pH 2; gradient (min/%B) 0/10 1/10 6/40 7/50 8/50 14/70 16/80 20/10 25/10
[6] = RP, Phenomenex Synergi Hydro-RP, 250 × 2 mm, 4 µm, 25 °C, 0.2 mL/min, estimated dead time 2.5 min; A: water + 0.1% formic acid, pH 3; B: acetonitrile + 0.1% formic acid, pH 3; gradient (min/%B) 0/0.5 7/0.5 12/12.5 25/16.3 47/35 48/65 50/65 50.1/0.5
[7] = RP, Merck Supelco SUPELCOSIL LC-C18, 250 × 4.6 mm, 5 µm, 40 °C, 1 mL/min, estimated dead time 2.6 min; A: water + 0.1% trifluoroacetic acid, pH 2; B: acetonitrile + 0.1% trifluoroacetic acid, pH 2; gradient (min/%B) 0/5 45/35 47/75 49/35 50/5
[8] = RP, Waters ACQUITY UPLC BEH Shield RP18, 150 × 2.1 mm, 1.7 µm, 40 °C, 0.4 mL/min, estimated dead time 0.83 min; A: water + 0.1% formic acid, pH 3; B: acetonitrile + 0.1% formic acid, pH 3; gradient (min/%B) 0/0 30/50 31/100 37/100 37.1/0
[9] = RP, Waters ACQUITY UPLC BEH Shield RP18, 100 × 2.1 mm, 1.7 µm, 30 °C, 0.6 mL/min, estimated dead time 0.37 min; A: water + 0.1% formic acid, pH 3; B: acetonitrile + 0.1% formic acid, pH 3; gradient (min/%B) 0/0 2/0 7/10 22/95 22.1/0 26/0
[10] = Other, Phenomenex Kinetex PFP, 100 × 4.6 mm, 5 µm, 45 °C, 0.6 mL/min, estimated dead time 1.8 min; A: water + 0.1% trifluoroacetic acid, pH 2; B: methanol; gradient (min/%B) 0/40 20/72 21/40
[11] = RP, 150 × 2.1 mm, 2.6 µm, 40 °C, 0.35 mL/min, estimated dead time 0.94 min; A: water + 0.1% formic acid, pH 3; B: acetonitrile + 0.1% formic acid, pH 3; gradient (min/%B) 0/0 1/0 12.5/100 14/100 14.2/0 15/0
[12] = Other, Phenomenex Kinetex PFP, 100 × 4.6 mm, 2.6 µm, 35 °C, 1.5 mL/min, estimated dead time 0.71 min; A: water + 0.1% trifluoroacetic acid, pH 2; B: acetonitrile + 0.1% trifluoroacetic acid, pH 2; gradient (min/%B) 0/1 7/7.5 14/7.6 17/10 18.5/12 20/12.5 24/30 25/90 25.1/1 32/1
[13] = RP, Phenomenex Luna Omega Polar C18, 100 × 2.1 mm, 1.6 µm, 40 °C, 0.5 mL/min, estimated dead time 0.44 min; A: water + 0.1% formic acid + 10 mM ammonium formate; B: acetonitrile; gradient (min/%B) 0/5 8/20 10/100 12/100 12.1/5 14/5
[14] = RP, Phenomenex Synergi Hydro-RP, 150 × 2 mm, 4 µm, 30 °C, 0.5 mL/min, estimated dead time 0.6 min; A: water + 0.1% formic acid, pH 3; B: acetonitrile + 0.1% formic acid, pH 3; gradient (min/%B) 0/5 1/5 35/45 40/100 45/100
[15] = RP, Waters ACQUITY UPLC HSS T3, 100 × 2.1 mm, 1.8 µm, 30 °C, 0.4 mL/min, estimated dead time 0.55 min; A: water + 0.1% formic acid, pH 3; B: acetonitrile + 0.1% formic acid, pH 3; gradient (min/%B) 0/0 2/0 15/100 22/100 22.1/0 26/0
[16] = RP, Agilent ZORBAX RRHD Eclipse Plus C18, 50 × 2.1 mm, 1.8 µm, 30 °C, 0.4 mL/min, estimated dead time 0.28 min; A: water + 0.1% formic acid, pH 3; B: acetonitrile + 0.1% formic acid, pH 3; gradient (min/%B) 0/1 5/10 8/25 9.1/99 10/99 12/1
[17] = RP, 50 × 0.5 mm, 2.7 µm, 35 °C, 0.01 mL/min, estimated dead time 0.62 min; A: water + 0.1% formic acid, pH 3; B: acetonitrile + 0.1% formic acid, pH 3; gradient (min/%B) 0/5 12/95 14/95 16/5
[18] = RP, Agilent InfinityLab Poroshell 120 EC-C18, 100 × 3 mm, 2.7 µm, 25 °C, 0.4 mL/min, estimated dead time 1.1 min; A: water + 0.1% formic acid, pH 3; B: acetonitrile + 0.1% formic acid, pH 3; gradient (min/%B) 0/5 10/25 20/40 24/90 25/90 26/5 30/5
[19] = RP, Phenomenex Luna C18, 150 × 4.6 mm, 3 µm, 25 °C, 0.5 mL/min, estimated dead time 3.2 min; A: water + 0.1% formic acid, pH 3; B: acetonitrile + 0.1% formic acid, pH 3; gradient (min/%B) 0/0 30/30 35/40 50/80 52/80 60/0 65/0
[20] = RP, Agilent ZORBAX Eclipse XDB-C18, 100 × 2.1 mm, 1.8 µm, 50 °C, 0.4 mL/min, estimated dead time 0.55 min; A: water + 0.1% formic acid, pH 3; B: methanol + 0.1% formic acid, pH 3; gradient (min/%B) 0/2 10/100 14.5/100 14.51/2 16.5/2
[21] = RP, 150 × 2.1 mm, 2.6 µm, 40 °C, 0.35 mL/min, estimated dead time 0.94 min; A: water + 0.1% formic acid, pH 3; B: acetonitrile + 0.1% formic acid, pH 3; gradient (min/%B) 0/0 1/5 7/45 8.5/80 10.5/80 11/5 12/5
[22] = RP, 100 × 0.5 mm, 2.7 µm, 45 °C, 0.015 mL/min, estimated dead time 0.83 min; A: water + 0.9% formic acid; B: acetonitrile + 0.9% formic acid; gradient (min/%B) 0/1 0.5/1 4/95 4.5/1 5/1
[23] = RP, Waters ACQUITY UPLC HSS T3, 100 × 2.1 mm, 50 °C; A: water + 0.1% formic acid, pH 3; B: 30% methanol + 70% acetonitrile + 0.1% formic acid, pH 3; gradient (min/%B) 0/5 1/8 2/15 3/40 4/70 4.5/100 5/100 6.4/100 6.6/5 6.8/5 7/5
[24] = RP, Phenomenex Kinetex EVO C18, 100 × 2.1 mm, 2.6 µm, 40 °C, 0.4 mL/min, estimated dead time 0.55 min; A: water + 0.2% formic acid; B: acetonitrile + 0.2% formic acid; gradient (min/%B) 0/5 0.5/5 7/95 8/95 8.5/5 12/5

| Compound | LC retention time [1] | LC retention time [2] | LC retention time [3] | LC retention time [4] | LC retention time [5] | LC retention time [6] | LC retention time [7] | LC retention time [8] | LC retention time [9] | LC retention time [10] | LC retention time [12] | LC retention time [13] | LC retention time [14] | LC retention time [15] | LC retention time [16] | LC retention time [17] | LC retention time [18] | LC retention time [19] | LC retention time [20] | LC retention time [22] | further results |
| --- | --- | --- | --- | --- | --- | --- | --- | --- | --- | --- | --- | --- | --- | --- | --- | --- | --- | --- | --- | --- | --- |
| COc1cc(/C=C/C(=O)O)ccc1O [Ferulic acid] | 2.17 min | 4.67 min | 61.3 min | 2.51 min | 7.28 min | 32.7 min | 21.7 min | 11.2 min | 12.5 min | 7.59 min | 20.7 min | 6.79 min | 14.4 min | 9.48 min | 7.16 min | 4.13 min | 9.17 min | 23.8 min | 4.64 min | 2.44 min | LC retention time [11]: 5.86 min; LC retention time [21]: 5.86 min |
| O=C(O)CNC(=O)c1ccccc1 [Hippuric acid] | 1.86 min | 3.49 min |  | 2.01 min |  | 20.2 min |  | 5.38 min | 6.13 min |  | 7.15 min | 3.2 min | 8.54 min | 8.4 min | 4.73 min | 2.59 min | 6.09 min | 15.1 min | 3.29 min | 2.13 min | LC retention time [23]: 3.07 min; LC retention time [24]: 3.8 min |
| O=C(O)c1ccc(O)c(O)c1 [Protocatechuic acid] | 1.48 min | 1.38 min | 29.7 min | 1.54 min | 2.23 min | 16.4 min | 7.9 min | 4.01 min | 5.2 min | 3.85 min | 4.92 min | 2.06 min | 5.02 min | 7.22 min | 2.12 min | 1.76 min | 3.96 min | 9.27 min | 2.31 min |  | LC retention time [24]: 1.55 min |

More lines, main results first:

| LC retention time [1] | LC retention time [2] | LC retention time [3] | LC retention time [4] | LC retention time [5] | LC retention time [6] | LC retention time [7] | LC retention time [8] | LC retention time [9] | LC retention time [10] | LC retention time [12] | LC retention time [13] | LC retention time [14] | LC retention time [15] | LC retention time [16] | LC retention time [17] | LC retention time [18] | LC retention time [19] | LC retention time [20] | LC retention time [22] | Compound | further results |
| --- | --- | --- | --- | --- | --- | --- | --- | --- | --- | --- | --- | --- | --- | --- | --- | --- | --- | --- | --- | --- | --- |
| 1.8 min | 1.83 min | 44.7 min | 2.07 min | 10 min | 22.1 min | 13.7 min | 6.96 min | 9.67 min |  | 9.34 min | 4.01 min |  | 8.52 min | 4.25 min | 2.97 min | 6.3 min | 15.7 min | 3.61 min |  | COc1cc(C(=O)O)ccc1O [Vanillic acid] | LC retention time [23]: 3.2 min; LC retention time [11]: 3.6 min; LC retention time [21]: 3.36 min |
| 1.99 min | 6.96 min | 56.2 min | 2.39 min | 6.73 min | 30.1 min | 19 min | 10.8 min | 12.3 min | 7.01 min | 17.6 min | 5.83 min |  | 9.24 min | 6.97 min | 3.84 min | 8.4 min | 21.7 min | 4.32 min | 2.3 min | O=C(O)C=Cc1ccc(O)cc1 [p-Coumaric acid] | LC retention time [23]: 3.45 min |
